Data published in patent US12539292B2, “BRM targeting compounds and associated methods of use” (Arvinas Operations, Inc., priority 2018, dated 2026).

Target: T1, BRM (Homo sapiens, UniProt P51531)
T1 construct: In-Cell Western Screen of BRM Degradation in SW1573 Cells; endogenous in cells; host or cells: SW1573
Assay: In-cell Western screen of BRM degradation in SW1573 cells (Dmax and DC50)
Assay type: cell-based
Conditions: for DC50: BRM degradation, read-out: BRM DC50; for Dmax: SW1573, read-out: BRM Dmax (%)
In short: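 SW1573 cells were treated overnight (18-20 hours) with compound at 0.1% final DMSO. They were then PFA-fixed, permeabilised with Triton X-100 and immunostained with 800 nm/680 nm secondary antibodies. BRM signal was quantified by LI-COR in-cell Western imaging to derive Dmax and DC50.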

[1] = % degraded, when tested at the top concentration of between 0.3 and 10 μM

T1 sequence (P51531 whole entry): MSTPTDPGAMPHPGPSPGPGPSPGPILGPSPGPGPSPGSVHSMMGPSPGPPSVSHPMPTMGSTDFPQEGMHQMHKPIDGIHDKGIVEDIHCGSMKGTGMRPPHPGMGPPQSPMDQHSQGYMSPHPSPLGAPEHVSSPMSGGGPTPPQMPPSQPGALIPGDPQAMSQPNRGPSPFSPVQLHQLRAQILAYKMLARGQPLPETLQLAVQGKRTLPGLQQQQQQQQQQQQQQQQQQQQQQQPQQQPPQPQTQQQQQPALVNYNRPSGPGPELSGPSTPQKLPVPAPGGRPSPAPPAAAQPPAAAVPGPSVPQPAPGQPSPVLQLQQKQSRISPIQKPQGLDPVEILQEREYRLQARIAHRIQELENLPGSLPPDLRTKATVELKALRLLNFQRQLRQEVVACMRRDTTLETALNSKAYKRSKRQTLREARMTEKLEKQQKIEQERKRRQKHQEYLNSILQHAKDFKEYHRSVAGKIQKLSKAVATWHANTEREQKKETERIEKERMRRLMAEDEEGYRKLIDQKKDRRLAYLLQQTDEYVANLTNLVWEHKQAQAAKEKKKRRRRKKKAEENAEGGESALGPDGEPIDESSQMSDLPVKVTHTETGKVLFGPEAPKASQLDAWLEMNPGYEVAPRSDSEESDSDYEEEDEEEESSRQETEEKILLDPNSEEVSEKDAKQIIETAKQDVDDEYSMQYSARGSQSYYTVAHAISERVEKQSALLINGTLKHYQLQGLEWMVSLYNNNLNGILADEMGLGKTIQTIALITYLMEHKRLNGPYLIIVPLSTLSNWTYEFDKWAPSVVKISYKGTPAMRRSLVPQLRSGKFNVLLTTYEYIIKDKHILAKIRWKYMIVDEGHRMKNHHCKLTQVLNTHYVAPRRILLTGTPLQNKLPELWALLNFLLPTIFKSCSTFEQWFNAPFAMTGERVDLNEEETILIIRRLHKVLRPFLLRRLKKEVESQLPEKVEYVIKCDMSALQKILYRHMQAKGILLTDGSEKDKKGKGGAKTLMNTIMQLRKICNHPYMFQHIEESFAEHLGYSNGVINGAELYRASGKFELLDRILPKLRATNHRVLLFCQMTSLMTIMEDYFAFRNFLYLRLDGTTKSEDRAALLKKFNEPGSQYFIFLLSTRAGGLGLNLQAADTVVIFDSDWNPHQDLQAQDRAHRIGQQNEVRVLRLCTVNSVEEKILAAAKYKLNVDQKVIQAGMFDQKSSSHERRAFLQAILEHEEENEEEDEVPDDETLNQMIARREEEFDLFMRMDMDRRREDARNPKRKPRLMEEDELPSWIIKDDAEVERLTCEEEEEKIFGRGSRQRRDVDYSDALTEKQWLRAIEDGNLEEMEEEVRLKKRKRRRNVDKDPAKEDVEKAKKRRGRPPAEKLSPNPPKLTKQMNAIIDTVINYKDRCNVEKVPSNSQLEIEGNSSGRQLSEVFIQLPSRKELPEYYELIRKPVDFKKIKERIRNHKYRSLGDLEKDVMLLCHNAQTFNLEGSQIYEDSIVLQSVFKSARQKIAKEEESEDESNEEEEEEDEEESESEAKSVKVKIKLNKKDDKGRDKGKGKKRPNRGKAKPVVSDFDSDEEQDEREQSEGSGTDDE

SMILES: Cc1ncsc1-c1ncc([C@@H](C)NC(=O)[C@@H]2C[C@@H](O)CN2C(=O)C(c2cc(OCCN3CCC(O[C@H]4C[C@H](Oc5cc(N6C7CCC6CN(c6cc(-c8ccccc8O)nnc6N)C7)ccn5)C4)CC3)no2)C(C)C)cc1F (stereo partly drawn) [compound 501, (2S,4R)-1-(2-(3-(2-(4-((1r,3r)-3-((4-(3-(3-amino-6-(2-hydroxyphenyl)pyridazin-4-yl)-3,8-diazabicyclo[3.2.1]octan-8-yl)pyridin-2-yl)oxy)cyclobutoxy)piperidin-1-yl)ethoxy)isoxazol-5-yl)-3-methylbutanoyl)-N-((R)-1-(5-fluoro-6-(4-methylthiazol-5-yl)pyridin-3-yl)ethyl)-4-hydroxypyrrolidine-2-carboxamide]
- DC50: < 2.5 nM
- Dmax [1]: > 75%

SMILES: Cc1ncsc1-c1ccc([C@H](C)NC(=O)[C@@H]2C[C@@H](O)CN2C(=O)[C@@H](c2cc(OCCN3CCC(O[C@H]4C[C@H](Oc5cc(N6C7CCC6CN(c6cc(-c8cc(F)ccc8O)nnc6N)C7)ccn5)C4)CC3)no2)C(C)C)cc1 [compound 502, (2S,4R)-1-((2R)-2-(3-(2-(4-((1r,3R)-3-((4-(3-(3-amino-6-(5-fluoro-2-hydroxyphenyl)pyridazin-4-yl)-3,8-diazabicyclo[3.2.1]octan-8-yl)pyridin-2-yl)oxy)cyclobutoxy)piperidin-1-yl)ethoxy)isoxazol-5-yl)-3-methylbutanoyl)-4-hydroxy-N-((S)-1-(4-(4-methylthiazol-5-yl)phenyl)ethyl)pyrrolidine-2-carboxamide]
- DC50: < 2.5 nM
- Dmax [1]: > 75%

SMILES: Cc1ncsc1-c1ccc([C@H](C)NC(=O)[C@@H]2C[C@@H](O)CN2C(=O)[C@H](c2cc(OCCN3CCC(O[C@H]4C[C@H](Oc5cc(N6C7CCC6CN(c6cc(-c8ccccc8O)nnc6N)C7)ccn5)C4)CC3)no2)C(C)C)nn1 [compound 503, (2S,4R)-1-((2S)-2-(3-(2-(4-((1r,3S)-3-((4-(3-(3-amino-6-(2-hydroxyphenyl)pyridazin-4-yl)-3,8-diazabicyclo[3.2.1]octan-8-yl)pyridin-2-yl)oxy)cyclobutoxy)piperidin-1-yl)ethoxy)isoxazol-5-yl)-3-methylbutanoyl)-4-hydroxy-N-((S)-1-(6-(4-methylthiazol-5-yl)pyridazin-3-yl)ethyl)pyrrolidine-2-carboxamide]
- DC50: > 30 nM

SMILES: Cc1ncsc1-c1ccc([C@H](C)NC(=O)[C@@H]2C[C@@H](O)CN2C(=O)[C@@H](c2cc(OCCN3CCC(O[C@H]4C[C@H](Oc5cc(N6C7CCC6CN(c6cc(-c8ccccc8O)nnc6N)C7)ccn5)C4)CC3)no2)C(C)C)nn1 [compound 504, (2S,4R)-1-((2R)-2-(3-(2-(4-((1r,3R)-3-((4-(3-(3-amino-6-(2-hydroxyphenyl)pyridazin-4-yl)-3,8-diazabicyclo[3.2.1]octan-8-yl)pyridin-2-yl)oxy)cyclobutoxy)piperidin-1-yl)ethoxy)isoxazol-5-yl)-3-methylbutanoyl)-4-hydroxy-N-((S)-1-(6-(4-methylthiazol-5-yl)pyridazin-3-yl)ethyl)pyrrolidine-2-carboxamide]
- DC50: > 30 nM

SMILES: Cc1ncsc1-c1ccc([C@H](C)NC(=O)[C@@H]2C[C@@H](O)CN2C(=O)[C@@H](c2cc(OCCN(C(C)C)[C@H]3CC[C@H](O[C@H]4C[C@H](Oc5cc(N6C7CCC6CN(c6cc(-c8ccccc8O)nnc6N)C7)ccn5)C4)CC3)no2)C(C)C)cn1 [compound 505, (2S,4R)-1-((2R)-2-(3-(2-(((1R,4R)-4-((1r,3R)-3-((4-(3-(3-amino-6-(2-hydroxyphenyl)pyridazin-4-yl)-3,8-diazabicyclo[3.2.1]octan-8-yl)pyridin-2-yl)oxy)cyclobutoxy)cyclohexyl)(isopropyl)amin 0)ethoxy)isoxazol-5-yl)-3-methylbutanoyl)-4-hydroxy-N-((S)-1-(6-(4-methylthiazol-5-yl)pyridin-3-yl)ethyl)pyrrolidine-2-carboxamide]
- DC50: 2.5 to 10 nM
- Dmax [1]: > 75%

SMILES: Cc1ncsc1-c1ccc([C@H](C)NC(=O)[C@@H]2C[C@@H](O)CN2C(=O)[C@@H](c2cc(OCCN3CCC(O[C@H]4C[C@H](Oc5cc(N6C7CCC6CN(c6cc(-c8ccccc8OP(=O)(O)O)nnc6N)C7)ccn5)C4)CC3)no2)C(C)C)cc1 [compound 506, 2-(6-amino-5-(8-(2-((1R,3r)-3-((1-(2-((5-((R)-1-((2S,4R)-4-hydroxy-2-(((S)-1-(4-(4-methylthiazol-5-yl)phenyl)ethyl)carbamoyl)pyrrolidin-1-yl)-3-methyl-1-oxobutan-2-yl)isoxazol-3-yl)oxy)ethyl)piperidin-4-yl)oxy)cyclobutoxy)pyridin-4-yl)-3,8-diazabicyclo[3.2.1]octan-3-yl)pyridazin-3-yl)phenyl dihydrogen phosphate]
- DC50: < 2.5 nM
- Dmax [1]: > 75%

SMILES: Cc1ncsc1-c1ccc([C@H](C)NC(=O)[C@@H]2C[C@@H](O)CN2C(=O)[C@@H](c2cc(OCCN3CCN(CCOc4cc(N5C6CCC5CN(c5cc(-c7ccccc7O)nnc5N)C6)ccn4)C[C@@H]3C)no2)C(C)C)cn1 [compound 509, (2S,4R)-1-((2R)-2-(3-(2-((2S)-4-(2-((4-(3-(3-amino-6-(2-hydroxyphenyl)pyridazin-4-yl)-3,8-diazabicyclo[3.2.1]octan-8-yl)pyridin-2-yl)oxy)ethyl)-2-methylpiperazin-1-yl)ethoxy)isoxazol-5-yl)-3-methylbutanoyl)-4-hydroxy-N-((S)-1-(6-(4-methylthiazol-5-yl)pyridin-3-yl)ethyl)pyrrolidine-2-carboxamide]
- DC50: < 2.5 nM
- Dmax [1]: > 75%

SMILES: Cc1ncsc1-c1ccc([C@H](C)NC(=O)[C@@H]2C[C@@H](O)CN2C(=O)[C@H](c2cc(OCCC3CCN(CCOc4cc(N5C6CCC5CN(c5cc(-c7ccccc7O)nnc5N)C6)ccn4)CC3)no2)C(C)C)cc1 [compound 510, (2S,4R)-1-((2S)-2-(3-(2-(1-(2-((4-(3-(3-amino-6-(2-hydroxyphenyl)pyridazin-4-yl)-3,8-diazabicyclo[3.2.1]octan-8-yl)pyridin-2-yl)oxy)ethyl)piperidin-4-yl)ethoxy)isoxazol-5-yl)-3-methylbutanoyl)-4-hydroxy-N-((S)-1-(4-(4-methylthiazol-5-yl)phenyl)ethyl)pyrrolidine-2-carboxamide]
- DC50: < 2.5 nM
- Dmax [1]: > 75%

SMILES: Cc1ncsc1-c1ccc([C@H](C)NC(=O)[C@@H]2C[C@@H](O)CN2C(=O)[C@@H](c2cc(OCCC3CCN(CCOc4cc(N5C6CCC5CN(c5cc(-c7ccccc7O)nnc5N)C6)ccn4)CC3)no2)C(C)C)cc1 [compound 511, (2S,4R)-1-((2R)-2-(3-(2-(1-(2-((4-(3-(3-amino-6-(2-hydroxyphenyl)pyridazin-4-yl)-3,8-diazabicyclo[3.2.1]octan-8-yl)pyridin-2-yl)oxy)ethyl)piperidin-4-yl)ethoxy)isoxazol-5-yl)-3-methylbutanoyl)-4-hydroxy-N-((S)-1-(4-(4-methylthiazol-5-yl)phenyl)ethyl)pyrrolidine-2-carboxamide]
- DC50: > 30 nM

SMILES: Cc1ncsc1-c1ccc([C@H](C)NC(=O)[C@@H]2C[C@@H](O)CN2C(=O)[C@@H](NC(=O)CN2CCC(CN3CCC(OC4CC(Oc5cc(N6C7CC[C@@H]6CN(c6cc(-c8ccccc8O)nnc6N)C7)ccn5)C4)CC3)CC2)C(C)(C)C)cc1 (stereo partly drawn) [compound 512, (2S,4R)-1-((2S)-2-(2-(4-((4-((1r,3r)-3-((4-(3-(3-amino-6-(2-hydroxyphenyl)pyridazin-4-yl)-3,8-diazabicyclo[3.2.1]octan-8-yl)pyridin-2-yl)oxy)cyclobutoxy)piperidin-1-yl)methyl)piperidin-1-yl)acetamido)-3,3-dimethylbutanoyl)-4-hydroxy-N-((S)-1-(4-(4-methylthiazol-5-yl)phenyl)ethyl)pyrrolidine-2-carboxamide]
- BRM Dmax (%) [1]: A (A > 75)
- DC50: < 2.5 nM

SMILES: Cc1cc([C@@H](C(=O)N2C[C@H](O)C[C@H]2C(=O)N[C@@H](C)c2ccc(-c3scnc3C)cc2)[C@H](C)COCCOc2cc(N3C4CCC3CN(c3cc(-c5ccccc5O)nnc3N)C4)ccn2)on1 [compound 513, (2S,4R)-1-((2S,3S)-4-(2-((4-(3-(3-amino-6-(2-hydroxyphenyl)pyridazin-4-yl)-3,8-diazabicyclo[3.2.1]octan-8-yl)pyridin-2-yl)oxy)ethoxy)-3-methyl-2-(3-methylisoxazol-5-yl)butanoyl)-4-hydroxy-N-((S)-1-(4-(4-methylthiazol-5-yl)phenyl)ethyl)pyrrolidine-2-carboxamide]
- DC50: > 30 nM

SMILES: Cc1cc([C@H](C(=O)N2C[C@H](O)C[C@H]2C(=O)N[C@@H](C)c2ccc(-c3scnc3C)cc2)[C@H](C)COCCOc2cc(N3C4CCC3CN(c3cc(-c5ccccc5O)nnc3N)C4)ccn2)on1 [compound 514, (2S,4R)-1-((2R,3S)-4-(2-((4-(3-(3-amino-6-(2-hydroxyphenyl)pyridazin-4-yl)-3,8-diazabicyclo[3.2.1]octan-8-yl)pyridin-2-yl)oxy)ethoxy)-3-methyl-2-(3-methylisoxazol-5-yl)butanoyl)-4-hydroxy-N-((S)-1-(4-(4-methylthiazol-5-yl)phenyl)ethyl)pyrrolidine-2-carboxamide]
- DC50: > 30 nM

SMILES: Cc1ncsc1-c1ccc([C@H](C)NC(=O)[C@@H]2C[C@@H](O)CN2C(=O)[C@@H](c2cc(OCCN3CCC(O[C@H]4C[C@H](Oc5cc(N6C7CCC6CN(c6ccnc8nc(-c9ccccc9O)cn68)C7)ccn5)C4)CC3)no2)C(C)C)cc1 [compound 515]
- DC50: > 30 nM

SMILES: Cc1ncsc1-c1ccc([C@H](C)NC(=O)[C@@H]2C[C@@H](O)CN2C(=O)[C@@H](c2cc(OCCN3CCC(O[C@H]4C[C@H](Oc5cc(N6C7CCC6CN(c6cc(N)nc8nc(-c9ccccc9O)cn68)C7)ccn5)C4)CC3)no2)C(C)C)cc1 [compound 516]
- DC50: > 30 nM
